Reference: patent publication US20170101670A1, “METHOD FOR DETECTING RARE MUTATION” (NATIONAL CANCER CENTER, priority 2015, published 2017)

Test system: Human TK6 lymphoblasts
Assay: Induction of point mutation of genomic DNA by mutagen in cultured cells, detected by sequencing 100 copies of genomic DNA
Type: cell-based
Conditions: TK6 cells exposed to 0, 0.1, 0.3, 1, 3, 10 or 30 μM for 24 hours, collected day 7; variants with ratio 0.8 to 10% counted; three independent analyses; FIG. 2
Method: In Example 1, N-nitroso-N-methylurea (hereinafter referred to as “MNU”) that was a mutagen was administered to cultured cells, to induce a point mutation of genomic DNA. Then, mutation was detected by the detection method of this embodiment, and the appearance frequency of the mutation was calculated. This analysis was independently performed three times.
Human TK6 lymphoblasts (hereinafter, referred to as “TK6 cell”) were obtained from American Type Culture Collection. On day 0, 1×10^5 cells of TK6 cells were seeded on a 10 cm plate. On day 1, the TK6 cells were exposed to MNU (Sigma) in a concentration of 0, 0.1, 0.3, 1, 3, 10 or 30 μM for 24 hours. On day 7, the number of cells was counted, and the cells were collected. Then, genomic DNA was extracted by phenol/chloroform method.
The copy number of the extracted genomic DNA was determined quantitatively by real-time PCR using SYBR (registered trademark) green I (BioWhittaker Molecular Applications) and iCycler Thermal Cycler (Bio-Rad Laboratories, Inc.). In the table, “F” means a forward primer, and “R” means a reverse primer. Each sample was measured using three kinds of primers. […]
A sample containing 100 copies of genomic DNA was prepared, based on the measurement result of the copy number. […] The average number of reads of sequencing was 5,000. Among the analyzed 48,587 bases, 15,724 bases were selected. […]

CN(N=O)C(N)=O [MNU, N-nitroso-N-methylurea]
appearance frequency of point mutation (somatic mutation induced by mutagen): correlation between the administration amount of MNU and the accumulation of mutations
